Reference: US5541189A, “Substituted aliphatic amine-containing macrocyclic immunomodulators” (Abbott Laboratories, priority 1995, dated 1996)

Experiments:
[1] = system: human mixed lymphocyte reaction (MLR); assay: human mixed lymphocyte reaction (MLR) assay, immunosuppressant activity; format: cell-based; conditions: in vitro
Protocol: The immunosuppressant activity of the compounds of the present invention was determined using the human mixed lymphocyte reaction (MLR) assay described by Kino, T. et al. in Transplantation Proceedings XIX(5):36-39, Suppl. 6 (1987), incorporated herein by reference.

P-glycoprotein = conditions: known; increasing sensitivity of multidrug resistant (MDR) cells to chemotherapeutic agents; cited from earlier work

IC50 [1] [nM] | Structure (SMILES) | modulators of P-glycoprotein (P-glycoprotein)
< 1000 | CC[C@@H]1/C=C(\C)C[C@H](C)C[C@H](OC)[C@H]2O[C@@](O)(C(=O)C(=O)N3CCCC[C@H]3C(=O)O[C@H](/C(C)=C/[C@@H]3CC[C@H](NCCN(CC)CC)[C@H](OC)C3)[C@H](C)[C@@H](O)CC1=O)[C@H](C)C[C@@H]2OC [Example 13] | 
< 1000 | CC[C@@H]1/C=C(\C)C[C@H](C)C[C@H](OC)[C@H]2O[C@@](O)(C(=O)C(=O)N3CCCC[C@H]3C(=O)O[C@H](/C(C)=C/[C@@H]3CC[C@H](NCCCN(C)C)[C@H](OC)C3)[C@H](C)[C@@H](O)CC1=O)[C@H](C)C[C@@H]2OC [Example 7] | 
< 1000 | CC[C@@H]1/C=C(\C)C[C@H](C)C[C@H](OC)[C@H]2O[C@@](O)(C(=O)C(=O)N3CCCC[C@H]3C(=O)O[C@H](/C(C)=C/[C@@H]3CC[C@H](N(CC)CCN(CC)CC)[C@H](OC)C3)[C@H](C)[C@@H](O)CC1=O)[C@H](C)C[C@@H]2OC [Example 29] | 

Continued, compound first:

Structure (SMILES) | IC50 [1] [nM] | modulators of P-glycoprotein (P-glycoprotein)
CC[C@@H]1/C=C(\C)C[C@H](C)C[C@H](OC)[C@H]2O[C@@](O)(C(=O)C(=O)N3CCCC[C@H]3C(=O)O[C@H](/C(C)=C/[C@@H]3CC[C@@H](NCCCN(C)C)[C@H](OC)C3)[C@H](C)[C@@H](O)CC1=O)[C@H](C)C[C@@H]2OC [Example 47] | < 1000 | 
C=CC[C@@H]1/C=C(\C)C[C@H](C)C[C@H](OC)[C@H]2O[C@@](O)(C(=O)C(=O)N3CCCC[C@H]3C(=O)O[C@H](/C(C)=C/[C@@H]3CC[C@@H](O)[C@H](OC)C3)[C@H](C)[C@@H](O)CC1=O)[C@H](C)C[C@@H]2OC [FK-506] |  | effective modulators of P-glycoprotein
